Source: US7317027B2, “Azaindole-derivatives as factor Xa inhibitors” (Sanofi-Aventis Deutschland GmbH, priority 2003, dated 2008)

molecular target: T1, human factor Xa (Homo sapiens, UniProt P00742); test: Factor Xa assay (chromogenic, substrate S-2765); type: biochemical; details: inhibition constant for inhibition of factor Xa; IC50 corrected for substrate competition; 0.5 nM enzyme, 140 μM S-2765, 25° C., pH 7.8; read-out: Ki(FXa)
T1 construct: 25 μl human factor Xa (Enzyme Research Laboratories, Inc; South Bend, Ind.) in TBS-PEG; purchased Enzyme Research Laboratories, Inc; South Bend, Ind
Experimental: The ability of the compounds of the formula I to inhibit factor Xa or factor VIIa or other enzymes like thrombin, plasmin, or trypsin can be assessed by determining the concentration of the compound of the formula I that inhibits enzyme activity by 50%, i. e. the IC50 value, which was related to the inhibition constant Ki. Purified enzymes were used in chromogenic assays. The concentration of inhibitor that causes a 50% decrease in the rate of substrate hydrolysis was determined by linear regression after plotting the relative rates of hydrolysis (compared to the uninhibited control) versus the log of the concentration of the compound of formula I. For calculating the inhibition constant Ki, the IC50 value was corrected for competition with substrate using the formula Ki=IC50/{1+(substrate concentration/Km)} wherein Km is the Michaelis-Menten constant (Chen and Prusoff, Biochem. Pharmacol. 22 (1973), 3099-3108; I. H. Segal, Enzyme Kinetics, 1975, John Wiley & Sons, New York, 100-125; which were incorporated herein by reference). a) Factor Xa Assay
In the assay for determining the inhibition of factor Xa activity TBS-PEG buffer (50 mM Tris-HCl, pH 7.8, 200 mM NaCl, 0.05% (w/v) PEG-8000, 0.02% (w/v) NaN3) was used. The IC50 was determined by combining in appropriate wells of a Costar half-area microtiter plate 25 μl human factor Xa (Enzyme Research Laboratories, Inc.; South Bend, Ind.) in TBS-PEG; 40 μl 10% (v/v) DMSO in TBS-PEG (uninhibited control) or various concentrations of the compound to be tested diluted in 10% (v/v) DMSO in TBS-PEG; and substrate S-2765 (N(α)-benzyloxycarbonyl-D-Arg-Gly-L-Arg-p-nitroanilide; Kabi Pharmacia, Inc.; Franklin, Ohio) in TBS-PEG.
The assay was performed by pre-incubating the compound of formula I plus enzyme for 10 min. Then the assay was initiated by adding substrate to obtain a final volume of 100 μl. The initial velocity of chromogenic substrate hydrolysis was measured by the change in absorbance at 405 nm using a Biotek Instruments kinetic plate reader (Ceres UV900HDi) at 25° C. during the linear portion of the time course (usually 1.5 min after addition of substrate). The enzyme concentration was 0.5 nM and substrate concentration was 140 μM.

T1 sequence (P00742 235-488 limits assumed): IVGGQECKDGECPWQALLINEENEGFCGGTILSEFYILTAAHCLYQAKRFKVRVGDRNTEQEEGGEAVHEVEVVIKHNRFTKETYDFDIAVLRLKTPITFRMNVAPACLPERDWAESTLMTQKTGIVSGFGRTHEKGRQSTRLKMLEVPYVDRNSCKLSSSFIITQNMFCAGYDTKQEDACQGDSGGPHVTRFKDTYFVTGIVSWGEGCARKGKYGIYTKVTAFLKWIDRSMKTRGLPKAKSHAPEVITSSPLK
T1 sequence (P00742 41-179 partner limits assumed): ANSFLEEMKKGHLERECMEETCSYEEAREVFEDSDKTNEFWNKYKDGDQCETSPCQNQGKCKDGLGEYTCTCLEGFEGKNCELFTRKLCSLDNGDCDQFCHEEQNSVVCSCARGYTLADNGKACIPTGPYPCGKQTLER

Compound	Ki [nM]
CC(C)N1CCC(NC(=O)c2cc3cc(C(=O)O)cnc3n2Cc2cc(-c3ccc(Cl)s3)on2)CC1 [Example 3, 1-[5-(5-Chloro-thiophen-2-yl)-isoxazol-3-ylmethyl]-2-(1-isopropyl-piperidin-4-ylcarbamoyl)-1H-pyrrolo[2,3-b]pyridine-5-carboxylic acid]	67
CC(C)N1CCC(NC(=O)c2cc3cc(OCCO)ncc3n2CC(=O)Nc2ccc(Cl)cn2)CC1 [Example 13, 1-[(5-Chloro-pyridin-2-ylcarbamoyl)-methyl]-5-(2-hydroxy-ethoxy)-1H-pyrrolo[2,3-c]pyridine-2-carboxylic acid (1-isopropyl-piperidin-4-yl)-amide]	44
COC(=O)c1cnc2c(c1)cc(C(=O)NC1CCN(C(C)C)CC1)n2Cc1cc(-c2ccc(Cl)s2)on1 [Example 2, 1-[5-(5-Chloro-thiophen-2-yl)-isoxazol-3-ylmethyl]-2-(1-isopropyl-piperidin-4-ylcarbamoyl)-1H-pyrrolo[2,3-b]pyridine-5-carboxylic acid methyl ester]	55
CC(C)N1CCC(NC(=O)c2cc3cc(OCCO)ncc3n2Cc2cc(-c3ccc(Cl)s3)on2)CC1 [Example 11, 1-[5-(5-Chloro-thiophen-2-yl)-isoxazol-3-ylmethyl]-5-(2-hydroxy-ethoxy)-1H-pyrrolo[2,3-c]pyridine-2-carboxylic acid (1-isopropyl-piperidin-4-yl)-amide]	47
CC(C)N1CCC(NC(=O)c2cc3cc(C(N)=O)cnc3n2Cc2cc(-c3ccc(Cl)s3)on2)CC1 [Example 4, 1-[5-(5-Chloro-thiophen-2-yl)-isoxazol-3-ylmethyl]-1H-pyrrolo[2,3-b]pyridine-2,5-dicarboxylic acid 5-amide 2-[(1-isopropyl-piperidin-4-yl)-amide]]	70
CC(C)N1CCC(NC(=O)c2cc3nc(C(=O)O)ccc3n2Cc2cc(-c3ccc(Cl)s3)on2)CC1 [Example 6, 1-[5-(5-Chloro-thiophen-2-yl)-isoxazol-3-ylmethyl]-2-(1-isopropyl-piperidin-4-ylcarbamoyl)-1H-pyrrolo[3,2-b]pyridine-5-carboxylic acid]	10
CC(C)N1CCC(NC(=O)c2cc3[nH]c(=O)ccc3n2Cc2cc(-c3ccc(Cl)s3)on2)CC1 [Example 7, 1-[5-(5-Chloro-thiophen-2-yl)-isoxazol-3-ylmethyl]-5-oxo-4,5-dihydro-1H-pyrrolo[3,2-b]pyridine-2-carboxylic acid (1-isopropyl-piperidin-4-yl)-amide]	23
CC(C)N1CCC(NC(=O)c2cc3cccnc3n2Cc2cc(-c3ccc(Cl)s3)on2)CC1 [Example 1, 1-[5-(5-Chloro-thiophen-2-yl)-isoxazol-3-ylmethyl]-1H-pyrrolo[2,3-b]pyridine-2-carboxylic acid (1-isopropyl-piperidin-4-yl)-amide]	6
O=C(O)c1ccc2c(cc(C(=O)NC3CCN(c4ccncc4)CC3)n2Cc2cc(-c3ccc(Cl)s3)on2)n1 [Example 9, 1-[5-(5-Chloro-thiophen-2-yl)-isoxazol-3-ylmethyl]-2-(3,4,5,6-tetrahydro-2H-[1,4′]bipyridyl-4-ylcarbamoyl)-1H-pyrrolo[3,2-b]pyridine-5-carboxylic acid]	85
CC(C)N1CCC(NC(=O)c2cc3ncccc3n2Cc2cc(-c3ccc(Cl)s3)on2)CC1 [Example 5, 1-[5-(5-Chloro-thiophen-2-yl)-isoxazol-3-ylmethyl]-1H-pyrrolo[3,2-b]pyridine-2-carboxylic acid (1-isopropyl-piperidin-4-yl)-amide]	4
